Legend:
Assay in all cases: drug sensitivity score (DSS2, normalised partial AUC of dose-response, 72 h CellTiter-Glo viability) (DSS (dimensionless)); higher = more sensitive (stronger growth inhibition / cytotoxicity); extreme values may be limits of the assay
22Rv1 = tested on: 22Rv1
Summary of the method: (§1)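 The drug sensitivity score reported here is a partial area under the fitted logistic dose–response curve, divided by the log of the curve's upper asymptote and computed in BREEZE; higher values denote greater sensitivity. Low-passage primary prostate cancer-associated fibroblasts, PF179T, WPMY-1, LNCaP and 22Rv1 cells were seeded into 384-well plates preloaded with compounds at five doses across a 10,000-fold range. CellTiter-Glo 2.0 luminescence gave viability at 72 h, scaled to vehicle and positive-control wells.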

CAF#1 = tested on: CAF#1 (primary prostate cancer-associated fibroblasts of myCAF-like type)
Summary of the method: as §1

CAF#2 = tested on: CAF#2 (primary prostate cancer-associated fibroblasts of iCAF-like type)
Summary of the method: as §1

CAF#3 = tested on: CAF#3 (primary prostate cancer-associated fibroblasts of myCAF-like type)
Summary of the method: as §1

CAF#4 = tested on: CAF#4 (primary prostate cancer-associated fibroblasts of iCAF-like type)
Summary of the method: as §1

CAF#5 = tested on: CAF#5 (primary prostate cancer-associated fibroblasts of myCAF-like type)
Summary of the method: as §1

CAF#6 = tested on: CAF#6 (primary prostate cancer-associated fibroblasts of iCAF-like type)
Summary of the method: as §1

CAF#7 = tested on: CAF#7 (primary prostate cancer-associated fibroblasts of myCAF-like type)
Summary of the method: as §1

LNCAP = tested on: LNCAP
Summary of the method: as §1

PF179T = tested on: PF179T
Summary of the method: as §1

WPMY-1 = tested on: WPMY-1
Summary of the method: as §1

Structure (SMILES)	drug sensitivity score (22Rv1)	drug sensitivity score (CAF#1)	drug sensitivity score (CAF#2)	drug sensitivity score (CAF#3)	drug sensitivity score (CAF#4)	drug sensitivity score (CAF#5)	drug sensitivity score (CAF#6)	drug sensitivity score (CAF#7)	drug sensitivity score (LNCAP)	drug sensitivity score (PF179T)	drug sensitivity score (WPMY-1)
Nc1ncn([C@@H]2O[C@H](CO)[C@@H](O)[C@H]2O)c(=O)n1 [Azacitidine] (tested concentration range 1-10000 nM)	2.8	2.3	3	1.8	2.3	0.5	2.2	3.2	2.4	2.6	2
CCN1CCN(c2ccc(Nc3cc(N(C)C(=O)Nc4c(Cl)c(OC)cc(OC)c4Cl)ncn3)cc2)CC1 [Infigratinib] (tested concentration range 0.1-1000 nM)	0	0	0	0	0	0	0	0	0	0	0
CN1CC[C@H](c2c(O)cc(O)c3c(=O)cc(-c4ccccc4Cl)oc23)[C@H](O)C1 [Alvocidib] (tested concentration range 1-10000 nM)	17.4	15.9	16.8	16.5	12.7	15.4	13.9	15.4	18.2	10	16.5
O=C(NCc1ccncc1)C12CC3CC(C1)CC(c1ccc(Cl)cc1)(C3)C2 [Opaganib] (tested concentration range 5-50000 nM)	5.9	2.7	4.4	1.2	4.1	0.7	0.7	0.4	8.6	3.8	6.8
CC(C)c1cc(-c2n[nH]c(=O)n2-c2ccc3c(ccn3C)c2)c(O)cc1O [Ganetespib] (tested concentration range 0.1-1000 nM)	23.9	24.1	20.3	16.9	18.3	22.3	14.3	15.9	21.9	20.9	24.3
CN1CCN(C2CCC(n3cc(-c4ccc(Oc5ccccc5)cc4)c4c(N)ncnc43)CC2)CC1 (stereo not drawn) (tested concentration range 1-10000 nM)	9.1	12.2	14.6	11.2	13.6	11.5	11.7	16.6	8.3	9.3	10.1
CCCOc1ccn2c(C(C)=O)cc(-c3ccccc3S(C)(=O)=O)c2c1 [GSK2801] (tested concentration range 1-10000 nM)	0	0	0	0	0	0.4	0	0	1.2	0	0
N#CC[C@H](C1CCCC1)n1cc(-c2ncnc3[nH]ccc23)cn1 [Ruxolitinib] (tested concentration range 1-10000 nM)	0	0	0.8	0	0	1.3	0	0	1.5	0	0.6
Cc1cn(-c2cc(NC(=O)c3ccc(C)c(Nc4nccc(-c5cnccn5)n4)c3)cc(C(F)(F)F)c2)cn1 [Radotinib] (tested concentration range 1-10000 nM)	0	0.5	0	0	0.1	0	0	0	0.3	0	0
COc1cccc2c1C(=O)c1c(O)c3c(c(O)c1C2=O)C[C@@](O)(C(=O)CO)C[C@@H]3O[C@H]1C[C@H](N)[C@H](O)[C@H](C)O1 [Doxorubicin] (tested concentration range 0.1-1000 nM)	12.2	6.5	7.8	0	2.6	6.7	0	0	0	7.5	9.8
Cc1cccc(CC(=O)N2CCc3c2ccc(-c2cn(C)c4ncnc(N)c24)c3F)n1 (tested concentration range 0.2-2500 nM)	0.1	0	0	0	0	0	0	0	0.7	0	0
C/C(=C\c1csc(C)n1)[C@@H]1C[C@@H]2O[C@]2(C)CCC[C@H](C)[C@H](O)[C@@H](C)C(=O)C(C)(C)[C@@H](O)CC(=O)N1 [Ixabepilone] (tested concentration range 0.1-1000 nM)	4.3	2.9	4.3	0.1	2.9	2.5	0	0.4	4.4	3.2	4.5
Nc1ncnc2c1c(COc1cccc(Cl)c1)nn2C1CCOCC1 (tested concentration range 1-10000 nM)	0	2.5	2.1	2.8	0	1.8	0.6	1	2.3	0	0
Cn1ncc(Cl)c1-c1cc(C(=O)N[C@H](CN)Cc2cccc(F)c2)sc1Cl [Afuresertib] (tested concentration range 0.1-1000 nM)	4.6	3.2	1.5	0	1.7	2	0.6	0	17	0.1	0.6
CCC/C=C/C=C/C(=O)O[C@H]1/C(=C/C(=O)OC)C[C@H]2C[C@H]([C@@H](C)O)OC(=O)C[C@H](O)C[C@@H]3C[C@H](OC(C)=O)C(C)(C)[C@](O)(C[C@@H]4C/C(=C/C(=O)OC)C[C@H](/C=C/C(C)(C)[C@]1(O)O2)O4)O3 [Bryostatin 1] (tested concentration range 0-100 nM)	0	4.2	3.4	0.6	0.5	3	2.6	4	0.1	0	1.3
COc1cc(NS(C)(=O)=O)ccc1Nc1c2ccccc2nc2ccccc12 [Amsacrine] (tested concentration range 1-10000 nM)	10.1	3.2	6.7	3.1	2.4	2.2	3.8	7.1	17	7.7	11.1
C1=N/C2=N/c3ccc(OCCN4CCCC4)c(c3)COC/C=C/COCc3cccc(c3)C(=C1)N2 [Pacritinib] (tested concentration range 1-10000 nM)	8.6	6.7	7.8	9.4	6.1	7.3	8.2	8.1	8.4	4.5	10.5
O=C(O)CC[C@H]1CC[C@@](c2cc(F)ccc2F)(S(=O)(=O)c2ccc(Cl)cc2)CC1 [MK-0752] (tested concentration range 0.1-1000 nM)	0	0	0	0	0	0	0	0	0	0	0
CC(C)(C)NC(=O)[C@H]1CC[C@H]2[C@@H]3CC[C@H]4NC(=O)C=C[C@]4(C)[C@H]3CC[C@]12C [Finasteride] (tested concentration range 1-10000 nM)	0	0	0	0.5	0	0	0	0	2.8	0	0
Oc1ncnc2[nH]ncc12 [Allopurinol] (tested concentration range 1-10000 nM)	0	0	0	0	0	0	0	0	0	0	0
COc1cc2nccc(Oc3ccc(NC(=O)Nc4cc(C)on4)c(Cl)c3)c2cc1OC [Tivozanib] (tested concentration range 1-10000 nM)	1.6	6.2	7.7	6	4.6	6.9	4.2	6	4.8	3	4.6
O=C(Nc1cc(Cl)cc2c1[nH]c1cnccc12)c1cccnc1 [PS-1145] (tested concentration range 2.5-25000 nM)	0	3.1	4.1	1.3	0	2.5	0.1	0	0	3.5	0.1
Cc1ccc(=O)n(-c2ccccc2)c1 [Pirfenidone] (tested concentration range 1-10000 nM)	0	0	0	0	0	0	0	0	0	0	0

— the supplement of paper PMC12592484
